The record followed here is ChEMBL document CHEMBL5291721, “A preclinical secondary pharmacology resource illuminates target-adverse drug reaction associations of marketed drugs” (Nat Commun, 2023).

In general, AC50 refers to the midpoint of the concentration-response curve, whichever way the signal moves. A high value points to weaker potency.

The target in assay [1] is T1, Adenosine receptor A1 (Homo sapiens, UniProt P30542).
T1 sequence (P30542 whole entry): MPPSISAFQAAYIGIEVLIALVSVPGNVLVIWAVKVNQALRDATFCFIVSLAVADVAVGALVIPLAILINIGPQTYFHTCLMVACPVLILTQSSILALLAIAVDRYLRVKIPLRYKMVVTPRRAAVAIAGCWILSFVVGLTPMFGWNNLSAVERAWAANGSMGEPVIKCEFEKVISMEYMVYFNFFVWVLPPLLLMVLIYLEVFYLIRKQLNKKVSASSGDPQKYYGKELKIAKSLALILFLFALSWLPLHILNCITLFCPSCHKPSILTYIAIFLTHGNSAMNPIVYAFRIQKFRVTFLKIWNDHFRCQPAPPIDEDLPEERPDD

In assay [2] the target is T1, Adenosine receptor A1. This is another data set of the same source.
For assay [3], the target named is T2, Alpha-2A adrenergic receptor (Homo sapiens, UniProt P08913).
T2 sequence (P08913 whole entry): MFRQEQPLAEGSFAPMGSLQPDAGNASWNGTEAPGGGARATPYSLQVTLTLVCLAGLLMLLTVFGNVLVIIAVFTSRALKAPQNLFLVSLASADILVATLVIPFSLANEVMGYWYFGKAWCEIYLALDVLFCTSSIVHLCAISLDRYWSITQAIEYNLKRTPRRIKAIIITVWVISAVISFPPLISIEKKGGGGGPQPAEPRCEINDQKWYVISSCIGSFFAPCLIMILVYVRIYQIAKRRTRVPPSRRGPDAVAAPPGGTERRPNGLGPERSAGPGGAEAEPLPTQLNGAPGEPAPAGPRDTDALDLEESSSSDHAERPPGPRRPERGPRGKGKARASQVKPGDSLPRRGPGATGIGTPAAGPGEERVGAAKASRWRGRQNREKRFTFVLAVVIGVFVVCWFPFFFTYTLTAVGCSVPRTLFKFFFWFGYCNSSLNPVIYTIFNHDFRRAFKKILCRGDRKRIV
In kind it is functional, cell-based.

The target of assay [4] is T2, Alpha-2A adrenergic receptor. In kind it is functional, cell-based. The source holds these as a separate data set.
The target of a further assay is T3, B2 bradykinin receptor (Homo sapiens, UniProt P30411).
T3 sequence (P30411 whole entry): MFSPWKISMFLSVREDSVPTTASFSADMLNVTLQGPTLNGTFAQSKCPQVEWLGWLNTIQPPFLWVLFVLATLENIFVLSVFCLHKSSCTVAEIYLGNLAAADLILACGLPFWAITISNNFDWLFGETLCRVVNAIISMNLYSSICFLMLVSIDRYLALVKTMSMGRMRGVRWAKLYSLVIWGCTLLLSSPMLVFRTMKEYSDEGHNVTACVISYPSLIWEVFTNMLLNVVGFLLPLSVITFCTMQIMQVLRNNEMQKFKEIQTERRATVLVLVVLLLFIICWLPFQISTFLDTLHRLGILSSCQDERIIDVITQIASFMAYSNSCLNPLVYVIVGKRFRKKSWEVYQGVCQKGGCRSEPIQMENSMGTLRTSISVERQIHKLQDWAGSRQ

Assay [5] deals with T4, Muscarinic acetylcholine receptor M2 (Homo sapiens, UniProt P08172).
T4 sequence (P08172 whole entry): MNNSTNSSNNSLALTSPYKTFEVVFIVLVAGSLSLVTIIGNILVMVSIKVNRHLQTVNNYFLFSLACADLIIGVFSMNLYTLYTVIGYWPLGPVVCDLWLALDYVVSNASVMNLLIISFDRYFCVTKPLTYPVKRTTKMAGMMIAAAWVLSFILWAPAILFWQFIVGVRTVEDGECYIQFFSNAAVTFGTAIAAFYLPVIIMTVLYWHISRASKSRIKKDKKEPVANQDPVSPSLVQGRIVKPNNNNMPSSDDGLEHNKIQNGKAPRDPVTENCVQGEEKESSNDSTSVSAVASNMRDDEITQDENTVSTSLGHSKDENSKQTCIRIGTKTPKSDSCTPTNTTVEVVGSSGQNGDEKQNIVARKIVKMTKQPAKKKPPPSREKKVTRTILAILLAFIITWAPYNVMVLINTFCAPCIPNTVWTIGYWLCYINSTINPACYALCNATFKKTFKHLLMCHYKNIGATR
In kind it is functional, cell-based.

Assay [6] addresses Neuronal acetylcholine receptor subunit alpha-4 (Homo sapiens, UniProt P43681).
In the next assay the target is Cannabinoid receptor 1 (Homo sapiens, UniProt P21554). Format: functional, cell-based.
Chain of Cannabinoid receptor 1 (P21554 whole entry): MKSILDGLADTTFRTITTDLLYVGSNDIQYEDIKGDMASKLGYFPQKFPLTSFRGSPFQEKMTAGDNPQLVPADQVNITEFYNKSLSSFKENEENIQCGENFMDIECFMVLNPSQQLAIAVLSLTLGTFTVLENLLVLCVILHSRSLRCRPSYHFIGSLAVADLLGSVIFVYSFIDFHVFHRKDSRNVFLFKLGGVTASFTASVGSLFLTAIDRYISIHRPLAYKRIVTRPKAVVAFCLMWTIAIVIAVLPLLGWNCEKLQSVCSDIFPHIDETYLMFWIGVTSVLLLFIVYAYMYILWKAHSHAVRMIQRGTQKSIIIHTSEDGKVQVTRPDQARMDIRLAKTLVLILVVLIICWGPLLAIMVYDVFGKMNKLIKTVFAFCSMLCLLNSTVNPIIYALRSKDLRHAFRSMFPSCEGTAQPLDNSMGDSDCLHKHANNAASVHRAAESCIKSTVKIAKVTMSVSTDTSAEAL
The target in the next assay is D(1A) dopamine receptor (Homo sapiens, UniProt P21728). In kind it is functional, cell-based.
Chain of D(1A) dopamine receptor (P21728 whole entry): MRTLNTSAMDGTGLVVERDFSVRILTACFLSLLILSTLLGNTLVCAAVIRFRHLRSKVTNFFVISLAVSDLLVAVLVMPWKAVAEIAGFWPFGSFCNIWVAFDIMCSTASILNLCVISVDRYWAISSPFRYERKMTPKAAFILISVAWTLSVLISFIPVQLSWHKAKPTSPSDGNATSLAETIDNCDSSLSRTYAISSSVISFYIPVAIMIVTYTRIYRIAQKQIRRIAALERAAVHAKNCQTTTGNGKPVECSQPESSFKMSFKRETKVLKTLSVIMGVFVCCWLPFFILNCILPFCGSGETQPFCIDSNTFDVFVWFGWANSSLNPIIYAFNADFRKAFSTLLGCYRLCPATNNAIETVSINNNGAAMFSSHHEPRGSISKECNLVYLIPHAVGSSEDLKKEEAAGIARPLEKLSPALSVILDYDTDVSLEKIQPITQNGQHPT
In assay [7] the target is Gamma-aminobutyric acid receptor subunit alpha-1 (Rattus norvegicus, UniProt P62813).
Chain of Gamma-aminobutyric acid receptor subunit alpha-1 (P62813 whole entry): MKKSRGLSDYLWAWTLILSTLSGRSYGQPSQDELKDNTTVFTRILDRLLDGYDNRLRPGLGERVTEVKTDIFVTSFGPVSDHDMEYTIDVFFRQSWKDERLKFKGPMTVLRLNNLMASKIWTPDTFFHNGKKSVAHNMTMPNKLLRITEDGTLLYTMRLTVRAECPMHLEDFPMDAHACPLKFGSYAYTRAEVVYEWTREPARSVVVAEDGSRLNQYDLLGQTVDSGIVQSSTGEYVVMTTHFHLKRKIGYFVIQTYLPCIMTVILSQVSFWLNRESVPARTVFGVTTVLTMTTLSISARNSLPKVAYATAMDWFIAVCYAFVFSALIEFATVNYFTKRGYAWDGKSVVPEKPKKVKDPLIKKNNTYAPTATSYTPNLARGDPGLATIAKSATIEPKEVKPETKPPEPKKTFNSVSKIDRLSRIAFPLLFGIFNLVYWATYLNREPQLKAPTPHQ
The next assay addresses Histamine H1 receptor (Homo sapiens, UniProt P35367).
For assay [8], the target named is 5-hydroxytryptamine receptor 2B (Homo sapiens, UniProt P41595). In kind it is functional, cell-based.
Chain of 5-hydroxytryptamine receptor 2B (P41595 whole entry): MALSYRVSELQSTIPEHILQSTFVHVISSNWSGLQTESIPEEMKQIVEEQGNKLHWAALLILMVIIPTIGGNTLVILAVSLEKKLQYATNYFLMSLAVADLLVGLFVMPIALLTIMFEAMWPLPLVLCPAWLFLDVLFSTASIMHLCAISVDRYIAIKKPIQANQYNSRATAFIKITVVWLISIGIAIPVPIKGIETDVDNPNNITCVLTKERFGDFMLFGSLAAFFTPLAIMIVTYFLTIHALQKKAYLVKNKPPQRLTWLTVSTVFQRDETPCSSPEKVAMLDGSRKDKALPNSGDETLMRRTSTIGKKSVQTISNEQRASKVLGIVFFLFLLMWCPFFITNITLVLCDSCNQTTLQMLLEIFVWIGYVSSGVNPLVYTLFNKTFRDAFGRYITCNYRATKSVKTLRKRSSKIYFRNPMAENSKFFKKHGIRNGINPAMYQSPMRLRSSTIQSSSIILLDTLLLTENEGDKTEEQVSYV
Assay [9] concerns the target Delta-type opioid receptor (Homo sapiens, UniProt P41143).
For assay [10], the target named is 3',5'-cyclic-AMP phosphodiesterase 4D (Homo sapiens, UniProt Q08499). Format: functional.
Chain of 3',5'-cyclic-AMP phosphodiesterase 4D (Q08499 whole entry): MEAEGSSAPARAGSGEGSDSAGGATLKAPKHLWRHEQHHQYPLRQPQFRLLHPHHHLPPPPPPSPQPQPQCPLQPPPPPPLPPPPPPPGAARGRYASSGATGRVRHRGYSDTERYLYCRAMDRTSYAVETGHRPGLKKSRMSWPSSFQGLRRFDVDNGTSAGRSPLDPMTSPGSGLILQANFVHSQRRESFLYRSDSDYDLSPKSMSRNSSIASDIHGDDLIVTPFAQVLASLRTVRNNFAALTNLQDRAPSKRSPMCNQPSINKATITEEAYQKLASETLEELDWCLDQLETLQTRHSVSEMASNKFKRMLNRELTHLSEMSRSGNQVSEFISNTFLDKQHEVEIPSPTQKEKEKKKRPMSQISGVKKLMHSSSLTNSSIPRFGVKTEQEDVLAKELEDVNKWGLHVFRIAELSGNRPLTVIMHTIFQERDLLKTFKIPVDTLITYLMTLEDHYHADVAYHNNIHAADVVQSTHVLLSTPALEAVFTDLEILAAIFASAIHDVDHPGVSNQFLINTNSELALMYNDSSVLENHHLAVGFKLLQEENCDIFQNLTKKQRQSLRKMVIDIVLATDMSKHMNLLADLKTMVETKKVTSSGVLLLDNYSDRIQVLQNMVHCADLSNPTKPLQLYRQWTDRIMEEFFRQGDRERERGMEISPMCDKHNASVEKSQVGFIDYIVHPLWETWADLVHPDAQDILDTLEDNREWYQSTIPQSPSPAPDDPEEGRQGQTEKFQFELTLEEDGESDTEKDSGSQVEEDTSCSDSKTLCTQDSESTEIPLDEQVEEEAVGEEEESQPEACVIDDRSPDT
Assay [11] has as its target T5, Prostaglandin G/H synthase 1 (Rattus norvegicus, UniProt Q63921).
T5 sequence (Q63921 whole entry): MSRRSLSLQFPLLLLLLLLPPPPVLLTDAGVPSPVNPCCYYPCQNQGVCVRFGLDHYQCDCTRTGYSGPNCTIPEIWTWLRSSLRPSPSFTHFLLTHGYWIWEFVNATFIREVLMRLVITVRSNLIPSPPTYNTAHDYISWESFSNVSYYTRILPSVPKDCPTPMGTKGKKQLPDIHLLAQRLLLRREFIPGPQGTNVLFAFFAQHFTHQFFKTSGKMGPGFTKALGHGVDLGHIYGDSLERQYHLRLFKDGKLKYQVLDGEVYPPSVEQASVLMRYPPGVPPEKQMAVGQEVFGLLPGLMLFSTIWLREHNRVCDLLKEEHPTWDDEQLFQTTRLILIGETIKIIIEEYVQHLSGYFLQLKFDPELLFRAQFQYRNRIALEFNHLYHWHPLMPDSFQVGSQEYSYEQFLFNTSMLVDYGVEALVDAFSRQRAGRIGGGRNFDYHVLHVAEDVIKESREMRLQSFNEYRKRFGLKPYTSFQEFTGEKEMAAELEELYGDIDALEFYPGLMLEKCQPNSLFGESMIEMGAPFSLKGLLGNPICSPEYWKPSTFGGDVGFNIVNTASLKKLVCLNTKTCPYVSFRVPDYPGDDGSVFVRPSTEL
Format: functional.

Assay [12] addresses Sodium-dependent noradrenaline transporter (Homo sapiens, UniProt P23975).
Further: assay procedure not described here.

Chain of Histamine H1 receptor (P35367 whole entry): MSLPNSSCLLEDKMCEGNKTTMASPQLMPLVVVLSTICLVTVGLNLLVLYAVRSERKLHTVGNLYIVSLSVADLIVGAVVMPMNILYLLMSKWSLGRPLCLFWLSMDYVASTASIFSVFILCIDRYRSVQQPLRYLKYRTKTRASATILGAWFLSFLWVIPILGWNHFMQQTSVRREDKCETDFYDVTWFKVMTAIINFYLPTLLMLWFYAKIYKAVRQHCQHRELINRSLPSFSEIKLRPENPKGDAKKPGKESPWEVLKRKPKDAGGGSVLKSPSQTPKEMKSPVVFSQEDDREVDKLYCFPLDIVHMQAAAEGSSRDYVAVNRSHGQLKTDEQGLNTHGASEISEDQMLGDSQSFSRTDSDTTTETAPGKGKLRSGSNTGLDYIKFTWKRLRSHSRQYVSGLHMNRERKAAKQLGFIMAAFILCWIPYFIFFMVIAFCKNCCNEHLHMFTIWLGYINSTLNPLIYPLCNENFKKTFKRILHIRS
Chain of Sodium-dependent noradrenaline transporter (P23975 whole entry): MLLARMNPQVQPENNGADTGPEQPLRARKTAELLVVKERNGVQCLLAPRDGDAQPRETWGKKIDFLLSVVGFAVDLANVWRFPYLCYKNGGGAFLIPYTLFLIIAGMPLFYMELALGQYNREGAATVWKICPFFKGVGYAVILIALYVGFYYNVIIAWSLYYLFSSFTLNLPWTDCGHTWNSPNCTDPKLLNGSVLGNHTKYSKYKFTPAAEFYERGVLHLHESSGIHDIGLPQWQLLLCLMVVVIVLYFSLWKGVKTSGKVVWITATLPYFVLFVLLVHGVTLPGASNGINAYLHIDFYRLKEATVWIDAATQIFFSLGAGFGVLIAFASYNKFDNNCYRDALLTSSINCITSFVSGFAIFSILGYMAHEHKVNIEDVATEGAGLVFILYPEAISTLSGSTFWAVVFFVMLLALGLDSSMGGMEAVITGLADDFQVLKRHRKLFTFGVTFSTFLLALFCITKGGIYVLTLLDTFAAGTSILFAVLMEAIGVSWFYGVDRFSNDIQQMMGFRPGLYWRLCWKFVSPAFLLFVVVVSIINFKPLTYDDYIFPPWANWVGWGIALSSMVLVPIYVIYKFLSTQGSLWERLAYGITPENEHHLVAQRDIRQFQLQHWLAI
Chain of Neuronal acetylcholine receptor subunit alpha-4 (P43681 whole entry): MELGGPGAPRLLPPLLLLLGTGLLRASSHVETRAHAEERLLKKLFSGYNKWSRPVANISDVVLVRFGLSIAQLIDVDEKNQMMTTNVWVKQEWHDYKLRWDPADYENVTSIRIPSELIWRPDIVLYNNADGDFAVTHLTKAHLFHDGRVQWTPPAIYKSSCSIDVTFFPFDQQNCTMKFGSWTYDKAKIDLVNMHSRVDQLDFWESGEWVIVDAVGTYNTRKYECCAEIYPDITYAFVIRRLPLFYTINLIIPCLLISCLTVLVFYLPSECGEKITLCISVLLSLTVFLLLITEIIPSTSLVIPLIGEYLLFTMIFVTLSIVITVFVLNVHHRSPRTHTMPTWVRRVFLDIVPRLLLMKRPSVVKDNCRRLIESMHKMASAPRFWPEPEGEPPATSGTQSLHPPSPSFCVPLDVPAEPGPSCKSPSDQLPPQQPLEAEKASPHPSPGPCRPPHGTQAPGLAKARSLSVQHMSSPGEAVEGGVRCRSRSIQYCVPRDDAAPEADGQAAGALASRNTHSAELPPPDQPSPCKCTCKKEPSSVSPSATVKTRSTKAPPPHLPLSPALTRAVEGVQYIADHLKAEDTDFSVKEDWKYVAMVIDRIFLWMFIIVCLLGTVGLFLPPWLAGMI
Chain of Delta-type opioid receptor (P41143 whole entry): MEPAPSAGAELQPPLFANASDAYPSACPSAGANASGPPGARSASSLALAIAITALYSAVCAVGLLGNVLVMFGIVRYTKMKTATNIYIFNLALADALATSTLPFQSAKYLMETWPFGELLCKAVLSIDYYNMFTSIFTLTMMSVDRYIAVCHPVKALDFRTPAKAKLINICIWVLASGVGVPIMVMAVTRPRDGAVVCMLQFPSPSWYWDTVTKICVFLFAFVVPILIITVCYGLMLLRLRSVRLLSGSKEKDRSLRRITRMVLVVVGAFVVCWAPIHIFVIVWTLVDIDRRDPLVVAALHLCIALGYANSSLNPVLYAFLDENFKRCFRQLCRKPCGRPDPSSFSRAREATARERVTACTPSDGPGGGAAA

`C[C@@H](O)[C@H]1C(=O)N2C(C(=O)O)=C(S[C@@H]3CN[C@H](C(=O)Nc4cccc(C(=O)O)c4)C3)[C@H](C)[C@H]12`: the half-maximal activity concentration (AC50) on Adenosine receptor A1 [1] was over 30 µM.
On Adenosine receptor A1 [1], `CC(=O)OC1CN2CCC1CC2` (configuration not stated) [ACECLIDINE] came in with an AC50 of over 30 µM.
At Adenosine receptor A1 [1], `CC1=C(/C=C/C(C)=C\C=C\C(C)=C\C(=O)O)C(C)(C)CCC1` [ALITRETINOIN] returned an AC50 of over 30 µM.
Regarding `CC(=O)Nc1ccc(/C=N/NC(N)=S)cc1` [AMITHIOZONE], the concentration at half-maximal activity (AC50) on Adenosine receptor A1 [1] was over 30 µM.
Take `COc1ccc(-c2cc(=S)ss2)cc1` [ANETHOLTRITHION]: the AC50 on Adenosine receptor A1 [2] was 5.9 µM; in [3], over 30 µM; in assay [4], over 30 µM; at B2 bradykinin receptor, over 30 µM; in assay [5] it was over 30 µM; in assay [6], 9.2 µM. Moreover, the concentration at half-maximal activity (AC50) (at Cannabinoid receptor 1; on D(1A) dopamine receptor; in assay [7]; on Histamine H1 receptor; in [8]; in [9]) was over 30 µM in each case. Further, the figures for the half-maximal activity concentration (AC50) in assay [10], in [11] and in [12] were over 10 µM, over 30 µM and 7.3 µM, respectively.
With `CC1(C)S[C@@H]2[C@H](NC(=O)[C@H](NC(=O)c3cnc4cccnc4c3O)c3ccccc3)C(=O)N2[C@H]1C(=O)O` [APALCILLIN], the AC50 at Adenosine receptor A1 [1] was over 30 µM.
The same measure, in the same setting: the figure for `O=C(OOC(=O)c1ccccc1)c1ccccc1` [BENZOYL PEROXIDE] is over 30 µM.
With `C[C@]12CCC(=O)C=C1C=C[C@@H]1[C@@H]2CC[C@@]2(C)[C@H]1CC[C@@]21CCC(=O)O1` [CANRENONE], the AC50 (on Adenosine receptor A1 [2]; in assay [3]; in assay [4]; at B2 bradykinin receptor; in assay [5]; in [6]) was over 30 µM each time. For the same compound, the concentration at half-maximal activity (AC50) (on Cannabinoid receptor 1; at D(1A) dopamine receptor; in [7]; on Histamine H1 receptor; in assay [8]; in assay [9]) was over 30 µM in each case. Further, the AC50 in [10], in assay [11] and in assay [12] was over 30 µM throughout.
Take `CN(C)CCC(O)(c1ccccc1)c1ccccc1Cl` (configuration not stated) [CHLOPHEDIANOL]: the half-maximal activity concentration (AC50) (at Adenosine receptor A1 [2]; in assay [3]; in assay [4]; on B2 bradykinin receptor; in assay [5]; in assay [6]) was over 10 µM throughout. For the same compound, the AC50 is over 30 µM at Cannabinoid receptor 1; over 10 µM on D(1A) dopamine receptor; over 10 µM in assay [7]; over 10 µM on Histamine H1 receptor; over 10 µM in assay [8]; over 30 µM in assay [9]. For the same compound, the concentration at half-maximal activity (AC50) in [10] was over 30 µM; in assay [11], over 10 µM; in [12], over 10 µM.
`CC1(C)C[C@@H]1C(=O)N/C(=C\CCCCSC[C@H](N)C(=O)O)C(=O)O` [CILASTATIN] registered an AC50 on Adenosine receptor A1 [1] of over 30 µM.
Regarding `C[C@]12C=CC(=O)C=C1C(Cl)=C[C@@H]1[C@@H]2[C@@H](O)C[C@@]2(C)[C@H]1CC[C@]2(O)C(=O)CO` [CLOPREDNOL], the AC50 at Adenosine receptor A1 [2] was over 30 µM; in assay [3], over 30 µM; in assay [4], over 30 µM; on B2 bradykinin receptor, over 3 µM; in assay [5] it was over 30 µM; in assay [6], over 30 µM. The AC50 (at Cannabinoid receptor 1; at D(1A) dopamine receptor; in assay [7]; on Histamine H1 receptor; in assay [8]; in assay [9]) was over 30 µM in each case. For the same compound, the half-maximal activity concentration (AC50) in assay [10], in assay [11] and in assay [12] was over 30 µM throughout.
`COc1c(OCCCN2CCOCC2)ccc2c1N=C(NC(=O)c1cnc(N)nc1)N1CCN=C21` [COPANLISIB] returned an AC50 at Adenosine receptor A1 [1] of over 30 µM.
In the case of `CC(C)(Oc1ccc(Cl)cc1)C(=O)OCCOC(=O)c1cccnc1` [ETOFIBRATE], the AC50 (on Adenosine receptor A1 [2]; in assay [3]; in assay [4]; at B2 bradykinin receptor; in assay [5]; in [6]) was over 30 µM throughout. Besides, the AC50 (at Cannabinoid receptor 1; on D(1A) dopamine receptor; in [7]; at Histamine H1 receptor; in assay [8]; in assay [9]) was over 30 µM each time. Further, the AC50 in assay [10], in [11] and in assay [12] was over 30 µM throughout.
On to `CC1=C(/C=C/C(C)=C/C=C/C(C)=C\C(=O)O)C(C)(C)CCC1` [ISOTRETINOIN], for which, on Adenosine receptor A1 [1], the AC50 was over 30 µM.
On Adenosine receptor A1 [1], `CSCC[C@H](N)C(=O)O` [METHIONINE] displayed a concentration at half-maximal activity (AC50) of over 30 µM.
On the same count and under the same terms, in the case of `COCC(=O)O[C@]1(CCN(C)CCCc2nc3ccccc3[nH]2)CCc2cc(F)ccc2[C@@H]1C(C)C` [MIBEFRADIL] it was over 30 µM; in that of `O=C1Nc2ccccc2C1(c1ccc(O)cc1)c1ccc(O)cc1` [OXYPHENISATINE], over 30 µM.
Regarding `CN(C)[C@@H]1C(O)=C(C(=O)NCN2CCCC2)C(=O)[C@@]2(O)C(O)=C3C(=O)c4c(O)cccc4[C@@](C)(O)[C@H]3C[C@@H]12` [ROLITETRACYCLINE], the AC50 (on Adenosine receptor A1 [2]; in [3]; in assay [4]; at B2 bradykinin receptor; in [5]; in assay [6]) was over 10 µM in each case. Besides, the AC50 was over 30 µM at Cannabinoid receptor 1; over 10 µM at D(1A) dopamine receptor; over 10 µM in [7]; over 10 µM on Histamine H1 receptor; over 10 µM in assay [8]; over 30 µM in assay [9]. For the same compound, the AC50 was over 30 µM in assay [10], 0.653 µM in assay [11] and over 10 µM in assay [12].
